Laboratory results published in ChEMBL document CHEMBL1130374, “Resolution and biological activities of optical isomers of 1,4-diethyl-3,6-epidithiopiperazine-2,5-dione” (1997).

How the values were obtained:
[1] = organism: Mus musculus; assay: Compound was evaluated for macrophage adherence in thioglycolate induced mouse macrophages; format: functional; settings: read-out: ED50 (the source's name)
[2] = organism: Mus musculus; assay: The extent of apoptosis was determined by evaluating the subdiploid population of propidium iodide stained cells using flow cytometry after 9 hr using thymocytes from mice; format: functional, Thymocyte
[3] = biological target: Creatine kinase M-type (Oryctolagus cuniculus) (UniProt P00563); assay: Compound was evaluated for interaction with the creatine kinase in rabbit muscle after 6 hr; parameters: reference not given here
Chain of Creatine kinase M-type (Oryctolagus cuniculus) (P00563 whole entry, looked up): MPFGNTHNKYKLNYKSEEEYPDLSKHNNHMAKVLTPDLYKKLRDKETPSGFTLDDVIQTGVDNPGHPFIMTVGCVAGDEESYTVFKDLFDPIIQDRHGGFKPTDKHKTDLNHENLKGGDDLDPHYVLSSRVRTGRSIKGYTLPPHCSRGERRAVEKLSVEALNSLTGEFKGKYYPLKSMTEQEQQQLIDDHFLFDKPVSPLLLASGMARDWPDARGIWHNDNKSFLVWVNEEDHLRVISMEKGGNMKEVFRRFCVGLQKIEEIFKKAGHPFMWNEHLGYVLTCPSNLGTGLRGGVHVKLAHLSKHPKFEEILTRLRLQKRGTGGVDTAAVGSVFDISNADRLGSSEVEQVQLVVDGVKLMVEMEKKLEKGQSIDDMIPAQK

[4] = tested on: P815; assay: Compound was evaluated for Thymidine incorporation in P815 cell lines; format: functional; settings: Mus musculus, read-out: ED50 (the source's name)

Row | EC50 [1] [µM] | Activity [3] [%] | EC50 [4] [µM] | Compound | Activity [2] [%]
1 | 5 | 34 | 50 | CCN1C(=O)[C@H]2SS[C@@H]1C(=O)N2CC | 53
2 | 8 | 34 | 55 | CCN1C(=O)[C@@H]2SS[C@H]1C(=O)N2CC | 57
3 | 2.5 | 35 | 35 | CCN1C(=O)C2SSC1C(=O)N2CC (racemic) | 54

Row | Compound | EC50 [1] [µM] | Activity [3] [%] | EC50 [4] [µM] | Activity [2] [%]
4 | CN1C(=O)[C@]23CC4=CC=C[C@H](O)[C@H]4N2C(=O)[C@@]1(CO)SS3 [GLIOTOXIN] | 0.35 | 32 | 2 | 59
